# Test results published in article PMC8071193, “Dual-Target Compounds against Type 2 Diabetes Mellitus: Proof of Concept for Sodium Dependent Glucose Transporter (SGLT) and Glycogen Phosphorylase (GP) Inhibitors” (Pharmaceuticals, 2021).
# Like-named read-outs stand apart in the source and are kept apart here.
# What was measured:
# [1] = molecular target: T1, SGLT2 (Homo sapiens, UniProt P31639); assay: SGLT2 inhibition, 2-NBDG glucose uptake in SGLT2-overexpressing TSA201 cells; type: cell-based
# T1 construct: host or cells: TSA201 (Human Embryonal Kidney) cells, lentiviral transduction, puromycin selection
# T1 sequence (P31639 1-672): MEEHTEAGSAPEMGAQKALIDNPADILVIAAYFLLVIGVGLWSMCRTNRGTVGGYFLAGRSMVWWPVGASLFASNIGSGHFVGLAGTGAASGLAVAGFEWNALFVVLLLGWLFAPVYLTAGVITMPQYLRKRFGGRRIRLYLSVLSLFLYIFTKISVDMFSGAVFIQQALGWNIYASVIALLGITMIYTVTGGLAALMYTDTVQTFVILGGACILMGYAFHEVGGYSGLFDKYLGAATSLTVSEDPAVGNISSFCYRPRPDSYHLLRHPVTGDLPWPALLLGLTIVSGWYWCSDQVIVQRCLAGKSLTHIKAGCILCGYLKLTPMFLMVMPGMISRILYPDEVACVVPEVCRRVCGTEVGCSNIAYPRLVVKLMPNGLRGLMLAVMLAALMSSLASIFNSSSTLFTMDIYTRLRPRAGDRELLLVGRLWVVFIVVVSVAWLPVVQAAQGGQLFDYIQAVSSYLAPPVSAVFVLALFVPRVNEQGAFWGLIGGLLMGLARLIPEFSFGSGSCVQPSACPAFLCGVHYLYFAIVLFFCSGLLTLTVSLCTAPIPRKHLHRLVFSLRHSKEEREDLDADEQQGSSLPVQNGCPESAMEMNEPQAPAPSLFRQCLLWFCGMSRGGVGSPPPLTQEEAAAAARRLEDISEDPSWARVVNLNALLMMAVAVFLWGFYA
# Method: (§1) Cells (100,000 cells, TSA201) were plated into each well of a 24-well plate and incubated overnight at 37 °C. […] Two wells were treated only with hexadimetrine bromide as a control. After 24 h of transfection, the medium was changed to fresh medium without antibiotics. Cells were collected and transferred into T-25 flasks after 3 days. On the fifth day, 10 µg/mL puromycin was added to select only the transfected cells. The nontransfected cells cannot survive this high concentration of antibiotic. To keep up the selection, the medium including 10 µg/mL puromycin was replaced every two days. The cells lived under puromycin pressure until the day of the experiments.
# (§2) TSA201 cells (25,000) with and without overexpressed SGLT1 or 2 were put into poly-L-lysine (P5999, Sigma-Aldrich, St. Luis, MO, USA) treated wells of a 96-well plate. The next day, the cells were starved for 1 h with 90 µL glucose-free medium (D5036-10X1L Sigma-Aldrich, St. Luis, MO, USA) (with or without inhibitor). After starving, cells were treated with 100 µM 2-NBDG and incubated for 30 min (again with or without inhibitor). The incubation time of cells with possible inhibitors was 90 min altogether. After incubation, the medium was removed, the wells were washed with PBS twice, lysed with 100 µL lysis buffer (0.1 M KH2PO4 + 1% Triton-x, pH = 11), and stored at -20°C. […] Subsequently, the protein concentration was measured and NBDG uptake was normalized to protein amount.
# (§3) After selecting optimal concentrations, each compound was tested at four different concentrations. […] To determine the specific effects of the compounds on SGLT1 or 2, the glucose uptake values in TSA201 cells without SGLT overexpression were subtracted from the values in TSA201 cell overexpressing SGLT. […] All calculations were prepared using the GraphPad Prism software (GraphPad Software, Inc., SanDiego, CA, USA). The data were plotted on a logarithmic scale as a function of inhibitor concentration. The IC50 values were calculated by non-linear regression analysis from sigmoidal dose-response curves. The results of kinetic experiments were calculated from at least three independent experiments. Each experiment contained four parallel samples that were averaged. The standard deviations were calculated based on the average values for the independent experiments.
# [2] = molecular target: T2, SGLT1 (Homo sapiens, UniProt P13866); assay: SGLT1 inhibition, 2-NBDG glucose uptake in SGLT1-overexpressing TSA201 cells; type: cell-based
# T2 construct: host or cells: TSA201 (Human Embryonal Kidney) cells, lentiviral transduction, puromycin selection
# T2 sequence (P13866 1-664): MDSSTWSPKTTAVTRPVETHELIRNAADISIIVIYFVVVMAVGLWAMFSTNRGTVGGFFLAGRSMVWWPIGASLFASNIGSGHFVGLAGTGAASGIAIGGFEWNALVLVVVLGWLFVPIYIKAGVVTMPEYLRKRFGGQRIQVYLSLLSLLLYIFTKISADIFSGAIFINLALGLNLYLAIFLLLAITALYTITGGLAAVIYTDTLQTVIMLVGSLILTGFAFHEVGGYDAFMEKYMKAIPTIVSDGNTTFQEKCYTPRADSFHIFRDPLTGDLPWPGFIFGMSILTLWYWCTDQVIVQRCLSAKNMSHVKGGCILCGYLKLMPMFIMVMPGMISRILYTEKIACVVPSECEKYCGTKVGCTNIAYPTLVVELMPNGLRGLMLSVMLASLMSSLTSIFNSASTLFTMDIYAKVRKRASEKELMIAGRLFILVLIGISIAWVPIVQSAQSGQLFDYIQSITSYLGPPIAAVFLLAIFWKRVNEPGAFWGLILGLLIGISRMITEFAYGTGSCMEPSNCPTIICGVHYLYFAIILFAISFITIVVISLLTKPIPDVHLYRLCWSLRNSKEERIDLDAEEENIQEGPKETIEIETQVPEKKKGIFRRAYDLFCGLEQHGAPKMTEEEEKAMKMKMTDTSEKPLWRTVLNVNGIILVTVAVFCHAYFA
# Method: as §1, §2, §3
# [3] = molecular target: T3, rabbit muscle glycogen phosphorylase b (rmGPb) (Oryctolagus cuniculus, UniProt P00489); conditions: Table 3; NI: no inhibition at 625 µM; cited from earlier work
# T3 construct: Glycogen phosphorylase b was isolated from rabbit skeletal muscle; from tissue; host or cells: rabbit skeletal muscle
# T3 sequence (P00489 1-843): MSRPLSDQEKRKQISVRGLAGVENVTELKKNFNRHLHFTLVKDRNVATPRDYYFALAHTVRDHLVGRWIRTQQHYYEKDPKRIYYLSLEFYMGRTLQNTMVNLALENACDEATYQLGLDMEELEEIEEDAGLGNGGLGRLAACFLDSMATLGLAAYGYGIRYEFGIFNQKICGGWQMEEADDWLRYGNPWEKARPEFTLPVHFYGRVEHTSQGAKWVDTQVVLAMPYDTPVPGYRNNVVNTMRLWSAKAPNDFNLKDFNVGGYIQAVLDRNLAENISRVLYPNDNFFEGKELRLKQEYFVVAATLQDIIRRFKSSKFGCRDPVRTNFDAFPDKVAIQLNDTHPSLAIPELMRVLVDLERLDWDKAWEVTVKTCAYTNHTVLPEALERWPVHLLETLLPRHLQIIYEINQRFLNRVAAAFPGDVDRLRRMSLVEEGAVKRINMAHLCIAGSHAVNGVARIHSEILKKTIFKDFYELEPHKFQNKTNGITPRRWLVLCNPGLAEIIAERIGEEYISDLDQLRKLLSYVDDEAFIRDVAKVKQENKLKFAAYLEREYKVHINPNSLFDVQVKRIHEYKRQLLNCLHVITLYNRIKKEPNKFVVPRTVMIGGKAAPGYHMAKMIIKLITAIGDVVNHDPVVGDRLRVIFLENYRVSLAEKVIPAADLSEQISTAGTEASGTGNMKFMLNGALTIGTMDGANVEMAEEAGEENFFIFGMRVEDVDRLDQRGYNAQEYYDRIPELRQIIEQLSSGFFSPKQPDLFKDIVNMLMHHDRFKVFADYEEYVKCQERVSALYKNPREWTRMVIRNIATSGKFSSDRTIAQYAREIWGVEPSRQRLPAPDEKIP
# [4] = system: sodium dependent glucose cotransporter (SGLT2); design: method as in earlier work; conditions: ref 19 (1), 35 (2), 36 (3), 37 (4), 38 (5), 34 (6), cited from earlier work; for selectivity SGLT2/SGLT1: Table 1, value in brackets; for IC50: Table 1, read-out: IC50 against SGLT2
# [5] = molecular target: T3, rabbit muscle glycogen phosphorylase b (rmGPb); assay: Glycogen phosphorylase b enzyme kinetic inhibition assay (direction of glycogen synthesis); type: biochemical; conditions: Table 2; NI: no inhibition at 625 µM
# From the text: The 2-NBDG (2-deoxy-2-[(7-nitro-2,1,3-benzoxadiazol-4-yl)amino]-D-glucose, cat. 11046) was purchased from Cayman Chemical Company (Ann Arbor, MI, USA). Lentivirus for SLC5A1 and SLC5A2 (NM_000343 for SGLT1, and NM-003041 for SGLT2) were obtained from Origene (Rockville, MD, USA). These expression vectors contain a puromycin resistance gene. […] CyQUANT^TM Cell Proliferation Assay Kit (2036547) was from Invitrogen (Carlsbad, CA, USA). Glycogen phosphorylase b was isolated from rabbit skeletal muscle according to the method of Fischer and Krebs.
# Enzyme activity in the direction of glycogen synthesis was assayed. Kinetic data were collected using the muscle phosphorylase b (dephosphorylated, GPb) isoform. […] Enzymatic activities were presented in the form of a double-reciprocal plot (Lineweaver-Burk). The plots were analysed by a non-linear data analysis program. The inhibitor constants (Ki) were determined by secondary plots, replotting the slopes from the Lineweaver-Burk plot against the inhibitor concentrations. The means of standard errors for all calculated kinetic parameters averaged to less than 10% [78, 79].
# [6] = Table 3, TSA-201 cells, NI: no inhibition at 1000 µM
SMILES,"IC50 [1, 6]","IC50 [2, 6]",Ki [3],selectivity SGLT2/SGLT1 [4],IC50 [4],other results
"OC[C@H]1O[C@@H](c2ccc(F)c(Cc3cc4ccccc4s3)c2)[C@H](O)[C@@H](O)[C@@H]1O [compound 5, ipragliflozin]",–,–,–,254,0.0074 µM,–
"O=C(CCc1ccc(O)cc1)c1c(O)cc(O)cc1O[C@@H]1O[C@H](CO)[C@@H](O)[C@H](O)[C@H]1O [compound 1, phlorizin]",–,–,–,–,0.033 µM,–
"Cc1ccc([C@@H]2O[C@H](CO)[C@@H](O)[C@H](O)[C@H]2O)cc1Cc1ccc(-c2ccc(F)cc2)s1 [compound 4, canagliflozin]",–,–,–,414,0.0022 µM,–
"OC[C@H]1O[C@@H](c2nnc(Cc3ccccc3)o2)[C@H](O)[C@@H](O)[C@@H]1O [13a, 5-Benzyl-2-(β-D-glucopyranosyl)-1,3,4-oxadiazole]",–,–,–,–,–,"IC50 [1]: 2.21 ± 0.58 µM; SGLT2 inhibition (in words) ([1]; TSA201 cells, up to 1000 µM): showed inhibitory effects; IC50 [5]: > 625 µM; IC50 [2]: 23.7 ± 6.14 µM"

# Further lines, with some results ahead:
"IC50 [1, 6]","IC50 [2, 6]",SMILES,Ki [3],selectivity SGLT2/SGLT1 [4],IC50 [4],other results
9.1 ± 2.94 µM,242 ± 37.9 µM,OC[C@H]1O[C@@H](c2cn(-c3ccccc3)nn2)[C@H](O)[C@@H](O)[C@@H]1O [22a],> 625 µM,–,–,–
111 ± 27.6 µM,23.8 ± 5.72 µM,OC[C@H]1O[C@@H](c2cn(-c3ccc4ccccc4c3)nn2)[C@H](O)[C@@H](O)[C@@H]1O [22b],> 625 µM,–,–,–
